Laboratory results taken from patent publication US12017996B2, “Substituted quinolines and formulations thereof” (JIANGSU MEDOLUTION LTD, priority 2021, dated 2024).

Key:
Type in all cases: physicochemical
[1] = Solubility of Compound A in solvents
Source text: (§1) For example, Compound A is soluble in acetic acid and hydrochloric acid solution (0.1 M). […] Compound A's dissociation constants: pKa1 is 4.99; pKa2 is 10.26.

[2] = Compatibility test of excipients (impurities over time)
Method: Each of mannitol, sodium starch glycolate, hydroxpropyl cellulose and glyceryl behenate was individually mixed with Compound A. The resulting mixture was tested for the impurities over time under the following conditions: lumination 4500±500 Lux; high humidity at 90±5%; high temperature at 40±2° C.; and accelerated condition at humidity of 75±5% and temperature of 40±2° C. Testing were done at day 0, day 7 and day 14. The percentage of the total impurities and the SZMD4-Z8 impurity were recorded together with other data.

Dissociation constants = experiment: Dissociation constants
Source text: as §1

[3] = high temperature 40±2° C., day 7
[4] = high temperature 40±2° C., day 14
[5] = lumination 4500±500 Lux, day 14

Q: Which results are given for C#Cc1cccc(Nc2c(C#N)cnc3cc(OCC)c(NC(=O)/C=C/CN(C)C)cc23)c1.O=C(O)/C=C\C(=O)O [Compound A, (E)-N-[3-cyano-7-ethoxy-4-(3-ethynylanilino)-6-quinolyl]-4-(dimethylamino)but-2-enamide maleate]?
A: solubility ([1]; in acetic acid): soluble; solubility ([1]; in acetonitrile): slightly soluble; solubility ([1]; in ethanol): slightly soluble; solubility ([1]; in hydrochloric acid solution (0.1 M)): soluble; solubility ([1]; in n-propanol): hardly soluble; solubility ([1]; in sodium hydroxide solution (0.1 M)): not soluble; solubility ([1]; in water): extremely slightly soluble; SZMD4-Z8 impurity ([2]; day 0): 0.03%; Total Impurities ([2]; day 0): 0.29%; SZMD4-Z8 impurity ([2]; high humidity 90±5%, day 7): 0.04%; Total Impurities ([2]; high humidity 90±5%, day 7): 0.31%; SZMD4-Z8 impurity ([2]; high humidity 90±5%, day 14): 0.04%; Total Impurities ([2]; high humidity 90±5%, day 14): 0.30%; SZMD4-Z8 impurity [2, 3]: 0.03%; Total Impurities [2, 3]: 0.31%; SZMD4-Z8 impurity [2, 4]: 0.03%; Total Impurities [2, 4]: 0.30%; SZMD4-Z8 impurity ([2]; lumination 4500±500 Lux, day 7): 0.03%; Total Impurities ([2]; lumination 4500±500 Lux, day 7): 0.40%; SZMD4-Z8 impurity [2, 5]: 0.03%; Total Impurities [2, 5]: 0.44%%; dissociation constant pKa1 (Dissociation constants): 4.99; dissociation constant pKa2 (Dissociation constants): 10.26
